The values that follow are results of earlier work, collected in paper PMC7503629, “Synthesis and Biological Studies on Dinuclear Gold(I) Complexes with Di-(N-Heterocyclic Carbene) Ligands Functionalized with Carbohydrates” (Molecules, 2020).

On the set-up of this series: method as in doi:10.1002/ejic.201700768. Particulars: attributed to low mitochondrial penetration; cited from earlier work.

For the substance “[Au(magi)Cl] (magi = 1-methyl-3-(2,3,4,6-tetra-O-acetyl-β-D-glucopyranosyl)imidazole-2-ylidene)”, the “antiproliferative activity (in words)” value is “inertness”.
